Measured values taken from ChEMBL document CHEMBL3797179, “Probing for improved selectivity with dipeptide-derived inhibitors of dipeptidyl peptidases 8 and 9: the impact of P1-variation” (Medchemcomm, 2016).

Assays:
[1] = Inhibition of bovine testes DPP9 using Ala-Pro-p-nitroanilide as substrate preincubated for 15 mins followed by substrate addition measured for 10 mins by […]; parameters: species or system Bos taurus
Dipeptidyl peptidase 2 = Dipeptidyl peptidase 2 (Homo sapiens, UniProt Q9UHL4); experiment: Inhibition of DPP2 in human seminal plasma using Lys-Ala-p-nitroanilide as substrate preincubated for 15 mins followed by substrate addition measured for 10 mins by […]; assay type: cell-free
Dipeptidyl peptidase 8 = Dipeptidyl peptidase 8 (Homo sapiens, UniProt Q6V1X1); experiment: Inhibition of full length human DPP8 expressed in baculovirus infected sf9 cells using Ala-Pro-p-nitroanilide as substrate preincubated for 15 mins followed by substrate addition measured for 10 mins by […]
Prolyl endopeptidase FAP = biological target: T1, Prolyl endopeptidase FAP (Mus musculus, UniProt P97321); experiment: Inhibition of BALB/c mouse 5'-His6-tagged 3'-FLAG-tagged FAP fused with ECD expressed in HEK293 cells using Ala-Pro-p-nitroanilide as substrate preincubated for 15 mins followed by substrate addition measured for 10 mins by […]; assay type: cell-based
T1 sequence (P97321 whole entry): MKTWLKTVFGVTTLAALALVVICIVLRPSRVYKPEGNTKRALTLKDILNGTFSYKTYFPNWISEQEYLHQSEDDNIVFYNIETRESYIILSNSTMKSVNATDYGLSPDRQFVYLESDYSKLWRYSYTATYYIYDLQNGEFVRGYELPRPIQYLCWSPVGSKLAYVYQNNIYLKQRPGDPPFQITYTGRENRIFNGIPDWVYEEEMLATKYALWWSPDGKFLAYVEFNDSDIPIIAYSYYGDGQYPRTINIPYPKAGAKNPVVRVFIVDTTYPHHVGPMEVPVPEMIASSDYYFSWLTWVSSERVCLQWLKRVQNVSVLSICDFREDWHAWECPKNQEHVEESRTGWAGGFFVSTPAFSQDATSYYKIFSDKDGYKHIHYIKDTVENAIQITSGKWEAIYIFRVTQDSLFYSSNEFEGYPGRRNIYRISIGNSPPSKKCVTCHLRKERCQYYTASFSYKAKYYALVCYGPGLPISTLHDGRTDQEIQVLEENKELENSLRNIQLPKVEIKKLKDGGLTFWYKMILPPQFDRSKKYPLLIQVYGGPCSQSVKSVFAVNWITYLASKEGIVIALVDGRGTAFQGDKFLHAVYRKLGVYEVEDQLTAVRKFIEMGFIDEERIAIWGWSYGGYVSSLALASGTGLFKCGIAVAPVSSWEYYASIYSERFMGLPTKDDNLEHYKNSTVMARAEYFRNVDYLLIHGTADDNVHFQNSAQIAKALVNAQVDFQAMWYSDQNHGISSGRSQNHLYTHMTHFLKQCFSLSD

Dipeptidyl peptidase 4 = Dipeptidyl peptidase 4 (Homo sapiens, UniProt P27487); experiment: Inhibition of DPP4 in human seminal plasma using Gly-Pro-p-nitroanilide as substrate preincubated for 15 mins followed by substrate addition measured for 10 mins by […]; assay type: cell-free
Sequence of Dipeptidyl peptidase 4 (P27487 whole entry): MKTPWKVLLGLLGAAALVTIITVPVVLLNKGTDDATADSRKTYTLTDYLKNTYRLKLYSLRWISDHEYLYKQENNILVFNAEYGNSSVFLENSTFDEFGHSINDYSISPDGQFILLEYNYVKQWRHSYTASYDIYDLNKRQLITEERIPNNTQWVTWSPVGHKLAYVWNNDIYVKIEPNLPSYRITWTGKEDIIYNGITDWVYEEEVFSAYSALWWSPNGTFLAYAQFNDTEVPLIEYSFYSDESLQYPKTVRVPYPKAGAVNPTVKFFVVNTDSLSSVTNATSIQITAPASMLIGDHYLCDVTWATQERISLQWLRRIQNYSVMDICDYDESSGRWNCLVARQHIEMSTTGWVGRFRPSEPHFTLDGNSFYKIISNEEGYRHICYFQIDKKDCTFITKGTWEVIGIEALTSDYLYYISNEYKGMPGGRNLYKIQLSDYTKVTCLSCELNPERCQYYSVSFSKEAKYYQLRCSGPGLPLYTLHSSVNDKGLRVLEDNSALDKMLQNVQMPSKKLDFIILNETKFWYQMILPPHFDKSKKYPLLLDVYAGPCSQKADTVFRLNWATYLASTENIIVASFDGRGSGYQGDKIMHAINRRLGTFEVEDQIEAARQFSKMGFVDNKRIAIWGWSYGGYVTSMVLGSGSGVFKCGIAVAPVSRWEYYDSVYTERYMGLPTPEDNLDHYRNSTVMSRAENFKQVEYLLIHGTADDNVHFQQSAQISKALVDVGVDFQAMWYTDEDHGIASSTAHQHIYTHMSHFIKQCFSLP

Sequence of Dipeptidyl peptidase 8 (Q6V1X1 whole entry, the tested form may be a part): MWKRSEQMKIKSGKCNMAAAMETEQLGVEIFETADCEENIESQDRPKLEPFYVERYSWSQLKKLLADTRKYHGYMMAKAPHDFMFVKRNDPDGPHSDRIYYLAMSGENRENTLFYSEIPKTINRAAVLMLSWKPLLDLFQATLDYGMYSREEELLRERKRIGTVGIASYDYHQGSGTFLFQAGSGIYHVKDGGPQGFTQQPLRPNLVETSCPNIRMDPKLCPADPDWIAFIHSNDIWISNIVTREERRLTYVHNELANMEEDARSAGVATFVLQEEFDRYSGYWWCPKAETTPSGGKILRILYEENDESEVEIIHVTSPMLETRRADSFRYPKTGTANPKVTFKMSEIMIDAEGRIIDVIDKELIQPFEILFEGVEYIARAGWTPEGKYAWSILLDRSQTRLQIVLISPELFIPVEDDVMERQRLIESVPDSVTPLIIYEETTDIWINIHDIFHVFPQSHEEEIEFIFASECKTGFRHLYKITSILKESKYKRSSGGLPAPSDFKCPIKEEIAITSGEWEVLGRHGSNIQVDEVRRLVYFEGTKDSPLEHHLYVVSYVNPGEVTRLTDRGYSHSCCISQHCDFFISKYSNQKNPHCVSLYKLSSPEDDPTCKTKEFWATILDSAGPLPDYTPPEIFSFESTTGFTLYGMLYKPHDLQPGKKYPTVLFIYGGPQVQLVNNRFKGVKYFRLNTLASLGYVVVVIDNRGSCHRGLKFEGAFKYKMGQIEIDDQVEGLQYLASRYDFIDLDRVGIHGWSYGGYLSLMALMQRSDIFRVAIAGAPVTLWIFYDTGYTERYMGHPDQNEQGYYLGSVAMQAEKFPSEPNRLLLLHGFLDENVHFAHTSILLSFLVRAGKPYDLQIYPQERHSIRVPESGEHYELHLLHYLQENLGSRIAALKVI

| Compound | IC50 [1] [µM] | IC50 (Dipeptidyl peptidase 2) [µM] | also measured |
| --- | --- | --- | --- |
| CC[C@@H](C)[C@H](N)C(=O)N1Cc2cn[nH]c2C1 | > 100 | > 100 | IC50 (Dipeptidyl peptidase 8): > 100 µM |
| C=C1C[C@@H](C#N)N(C(=O)[C@@H](N)CC(=O)N2CCN(C(c3ccc(F)cc3)c3ccc(F)cc3)CC2)C1 | 0.083 | – | – |
| CC1CCN(C(=O)[C@@H](N)CC(=O)N2CCN(C(c3ccc(F)cc3)c3ccc(F)cc3)CC2)C1 (stereo partly specified) | 0.17 | – | IC50 (Prolyl endopeptidase FAP): > 100 µM |
| CCC1CCN(C(=O)[C@@H](N)CC(=O)N2CCN(C(c3ccc(F)cc3)c3ccc(F)cc3)CC2)C1 (stereo partly specified) | 0.36 | – | IC50 (Prolyl endopeptidase FAP): > 100 µM |
| C[C@H]1C[C@@H](C#N)N(C(=O)[C@@H](N)CC(=O)N2CCN(C(c3ccc(F)cc3)c3ccc(F)cc3)CC2)C1 | 0.012 | – | – |
| N[C@@H](CC(=O)N1CCN(C(c2ccc(F)cc2)c2ccc(F)cc2)CC1)C(=O)N1Cc2conc2C1 | 2.4 | – | – |
| CC[C@@H](C)[C@H](N)C(=O)N1C[C@@H](N=[N+]=[N-])C[C@H]1C#N | – | – | IC50 (Prolyl endopeptidase FAP): > 100 µM |
| CC[C@@H](C)[C@H](N)C(=O)N1CCC(C)C1 (stereo partly specified) | 4.7 | – | – |
| CCC1CCN(C(=O)[C@@H](N)[C@H](C)CC)C1 (stereo partly specified) | 5.7 | – | – |
| CC[C@@H](C)[C@H](N)C(=O)N1Cc2conc2C1 | 42 | – | – |
| N[C@@H](CC(=O)N1CCN(C(c2ccc(F)cc2)c2ccc(F)cc2)CC1)C(=O)N1Cc2cn[nH]c2C1 | > 25 | > 100 | IC50 (Dipeptidyl peptidase 8): > 100 µM |
| CC[C@@H](C)[C@H](N)C(=O)N1Cc2ccccc2C1 | – | – | IC50 (Prolyl endopeptidase FAP): > 100 µM |
| N#C[C@@H]1[C@@H]2C[C@@H]2CN1C(=O)[C@@H](N)CC(=O)N1CCN(C(c2ccc(F)cc2)c2ccc(F)cc2)CC1 | 0.0218 | – | – |
| C=C1CCN(C(=O)[C@@H](N)CC(=O)N2CCN(C(c3ccc(F)cc3)c3ccc(F)cc3)CC2)C1 | 0.41 | > 100 | – |
| C=C1CCN(C(=O)[C@@H](N)[C@H](C)CC)C1 | 16 | > 100 | IC50 (Dipeptidyl peptidase 4): > 50 µM |
| Cc1nc2c(s1)CN(C(=O)[C@@H](N)CC(=O)N1CCN(C(c3ccc(F)cc3)c3ccc(F)cc3)CC1)C2 | 30 | > 100 | – |
| N[C@@H](CC(=O)N1CCN(C(c2ccc(F)cc2)c2ccc(F)cc2)CC1)C(=O)N1CCC(C(F)(F)F)C1 (stereo partly specified) | 3.5 | – | – |
| CC[C@@H](C)[C@H](N)C(=O)N1C[C@H]2C[C@H]2[C@H]1C#N | 2.84 | > 100 | – |
| N[C@@H](CC(=O)N1CCN(C(c2ccc(F)cc2)c2ccc(F)cc2)CC1)C(=O)N1Cc2ccccc2C1 | 0.084 | – | IC50 (Prolyl endopeptidase FAP): > 100 µM |
| CC[C@@H](C)[C@H](N)C(=O)N1Cc2nc(C)sc2C1 | > 100 | > 100 | IC50 (Dipeptidyl peptidase 8): > 25 µM |
| N#C[C@@H]1C[C@H](N=[N+]=[N-])CN1C(=O)[C@@H](N)CC(=O)N1CCN(C(c2ccc(F)cc2)c2ccc(F)cc2)CC1 | 0.23 | > 25 | – |
